{"source": "patent US12349665B2", "about": "“Animal model for hepatocellular carcinoma and uses thereof” (TAIPEI VETERANS GENERAL HOSPITAL, priority 2019, dated 2025)", "assay_type_in_all_cases": "in vivo, mouse", "key": {"HBV": {"test_system": "HBV", "test": "Long-term use and withdrawal of HBV antiviral drugs in hybrid mice (HBV transgenic x miR-122 knock-out), viral load", "details": "six-month-old hybrid mice, ETV 5 or 1 mg/kg; for amount of virus after one month of medication (M1) / amount of virus after one month of withdrawal (M2): TDF 135 or 50 mg/kg", "method": "Six-month-old hybrid mice were fed with different doses of TDF (135 or 50 mg/kg-day) and […] (5 or 1 mg/kg-day).\n(Wu & Wu et al. Gastroenterology 2014). At present, nucleoside analogues that are more commonly used clinically are tenofovir (TDF) and entecavir (ETV), which have strong antiviral efficacy and rarely have drug resistance. Reactivation of the virus and recurrence of hepatitis occurred more frequently and early after withdrawal of tenofovir (TDF) than after withdrawal of entecavir (ETV). Withdrawal of tenofovir (TDF) may sometimes cause liver failure for some unknown reason. The effect of long-term use and withdrawal of HBV antiviral drug tenofovir (TDF) and entecavir (ETV) on the amount of virus was compared. Six-month-old hybrid mice were fed with different doses of TDF (135 or 50 mg/kg) and ETV (5 or 1 mg/kg). […] Studies of efficacy and side effects of long-term use of tenofovir (TDF) or entecavir (ETV) on reducing hepatitis by using the hybrid mice are going on, and valuable clinical data will be provided."}, "[1]": {"test_system": "drug resistant HBV genome", "test": "Antiviral drug treatment of HBV transgenic mice with drug resistant HBV genome, amount of virus in serum", "details": "compared with wild-type HBV genome mice", "source_text": "(§1) According to the present invention, the drug resistant HBV genome is resistant to an antiviral nucleoside analogue, such as adefovir or lamivudine.\n(§2) The upper and lower limits of the rectangles in the figure are quartiles, and the horizontal lines within the rectangles indicate the median. Mann-Whitney U test was used for statistical analysis, and p=0.0093, showing the significant differences."}, "[2]": {"test_system": "wild-type hepatitis B virus", "test": "Antiviral drug treatment of HBV transgenic mice with wild-type HBV genome, amount of virus in serum", "source_text": "as §1, §2"}}}
{"smiles": "C=C1[C@H](CO)[C@@H](O)C[C@@H]1n1cnc2c(=O)[nH]c(N)nc21", "note": "[ETV, entecavir]", "values": [{"measurement": "amount of virus after 3 months of withdrawal (M4)", "setting": "HBV", "value": "1.0E+5 to 1.0E+6"}, {"measurement": "amount of virus after 6 months of withdrawal (M7)", "setting": "HBV", "value": "rose to the level before the medication (M0)"}, {"measurement": "amount of virus after one month of medication (M1)", "setting": "HBV", "value": "reduce the amount of virus to a minimum"}, {"measurement": "amount of virus after one month of withdrawal (M2)", "setting": "HBV", "value": "maintained at the lower level"}]}
{"smiles": "CC(C)OC(=O)OCOP(=O)(CO[C@H](C)Cn1cnc2c(N)ncnc21)OCOC(=O)OC(C)C.O=C(O)/C=C/C(=O)O", "note": "[TDF, tenofovir]", "values": [{"measurement": "amount of virus after one month of medication (M1)", "setting": "HBV", "value": "reduce the amount of virus to a minimum"}, {"measurement": "amount of virus after one month of withdrawal (M2)", "setting": "HBV", "value": "quickly rose to the level before medication (M0)"}]}
{"smiles": "Nc1ncnc2c1ncn2CCOCP(=O)(O)O", "note": "[adefovir]", "values": [{"measurement": "amount of serum virus after treatment with antiviral drug", "setting": "[1]", "value": "decreased much less"}, {"measurement": "amount of serum virus after treatment with antiviral drug", "setting": "[2]", "value": "decreased by more than a thousand times"}]}
